Patent publication US8841330B2, “Omega-carboxyaryl substituted diphenyl ureas as raf kinase inhibitors” (Bayer Healthcare LLC, priority 2000, dated 2014)

| melting point [°C] | SMILES |
| --- | --- |
| 125 to 130 | CNC(=O)c1cc(Oc2ccc(NC(=O)Nc3ccc(Oc4ccnc(C(=O)NC)c4)cc3)cc2)ccn1 [Entry 103, bis(4-(2-(N-methylcarbamoyl)-4-pyridyloxy)phenyl)urea] |
| 228 to 230 | COC(=O)c1ccc(Oc2ccc(NC(=O)Nc3ccc(Cl)c(C(F)(F)F)c3)cc2)cn1 [Entry 55, N-(4-chloro-3-(trifluoromethyl)phenyl)-N′-(4-(2-(methoxycarbonyl)-5-pyridyloxy)phenyl)urea] |
